# Data reported in ChEMBL document CHEMBL4371076 (J Med Chem, 2019).
# The source made the active and inactive calls.
# How the values were obtained:
# [1] = molecular target: T1, Sodium channel protein type 9 subunit alpha (Homo sapiens, UniProt Q15858); assay: Inhibition of human Nav1.7 expressed in HEK293 cells after 600 secs at -60 mV holding potential by ion works barracuda population patch clamp method; format: cell-based
# Target sequence in this assay (Q15858 whole entry): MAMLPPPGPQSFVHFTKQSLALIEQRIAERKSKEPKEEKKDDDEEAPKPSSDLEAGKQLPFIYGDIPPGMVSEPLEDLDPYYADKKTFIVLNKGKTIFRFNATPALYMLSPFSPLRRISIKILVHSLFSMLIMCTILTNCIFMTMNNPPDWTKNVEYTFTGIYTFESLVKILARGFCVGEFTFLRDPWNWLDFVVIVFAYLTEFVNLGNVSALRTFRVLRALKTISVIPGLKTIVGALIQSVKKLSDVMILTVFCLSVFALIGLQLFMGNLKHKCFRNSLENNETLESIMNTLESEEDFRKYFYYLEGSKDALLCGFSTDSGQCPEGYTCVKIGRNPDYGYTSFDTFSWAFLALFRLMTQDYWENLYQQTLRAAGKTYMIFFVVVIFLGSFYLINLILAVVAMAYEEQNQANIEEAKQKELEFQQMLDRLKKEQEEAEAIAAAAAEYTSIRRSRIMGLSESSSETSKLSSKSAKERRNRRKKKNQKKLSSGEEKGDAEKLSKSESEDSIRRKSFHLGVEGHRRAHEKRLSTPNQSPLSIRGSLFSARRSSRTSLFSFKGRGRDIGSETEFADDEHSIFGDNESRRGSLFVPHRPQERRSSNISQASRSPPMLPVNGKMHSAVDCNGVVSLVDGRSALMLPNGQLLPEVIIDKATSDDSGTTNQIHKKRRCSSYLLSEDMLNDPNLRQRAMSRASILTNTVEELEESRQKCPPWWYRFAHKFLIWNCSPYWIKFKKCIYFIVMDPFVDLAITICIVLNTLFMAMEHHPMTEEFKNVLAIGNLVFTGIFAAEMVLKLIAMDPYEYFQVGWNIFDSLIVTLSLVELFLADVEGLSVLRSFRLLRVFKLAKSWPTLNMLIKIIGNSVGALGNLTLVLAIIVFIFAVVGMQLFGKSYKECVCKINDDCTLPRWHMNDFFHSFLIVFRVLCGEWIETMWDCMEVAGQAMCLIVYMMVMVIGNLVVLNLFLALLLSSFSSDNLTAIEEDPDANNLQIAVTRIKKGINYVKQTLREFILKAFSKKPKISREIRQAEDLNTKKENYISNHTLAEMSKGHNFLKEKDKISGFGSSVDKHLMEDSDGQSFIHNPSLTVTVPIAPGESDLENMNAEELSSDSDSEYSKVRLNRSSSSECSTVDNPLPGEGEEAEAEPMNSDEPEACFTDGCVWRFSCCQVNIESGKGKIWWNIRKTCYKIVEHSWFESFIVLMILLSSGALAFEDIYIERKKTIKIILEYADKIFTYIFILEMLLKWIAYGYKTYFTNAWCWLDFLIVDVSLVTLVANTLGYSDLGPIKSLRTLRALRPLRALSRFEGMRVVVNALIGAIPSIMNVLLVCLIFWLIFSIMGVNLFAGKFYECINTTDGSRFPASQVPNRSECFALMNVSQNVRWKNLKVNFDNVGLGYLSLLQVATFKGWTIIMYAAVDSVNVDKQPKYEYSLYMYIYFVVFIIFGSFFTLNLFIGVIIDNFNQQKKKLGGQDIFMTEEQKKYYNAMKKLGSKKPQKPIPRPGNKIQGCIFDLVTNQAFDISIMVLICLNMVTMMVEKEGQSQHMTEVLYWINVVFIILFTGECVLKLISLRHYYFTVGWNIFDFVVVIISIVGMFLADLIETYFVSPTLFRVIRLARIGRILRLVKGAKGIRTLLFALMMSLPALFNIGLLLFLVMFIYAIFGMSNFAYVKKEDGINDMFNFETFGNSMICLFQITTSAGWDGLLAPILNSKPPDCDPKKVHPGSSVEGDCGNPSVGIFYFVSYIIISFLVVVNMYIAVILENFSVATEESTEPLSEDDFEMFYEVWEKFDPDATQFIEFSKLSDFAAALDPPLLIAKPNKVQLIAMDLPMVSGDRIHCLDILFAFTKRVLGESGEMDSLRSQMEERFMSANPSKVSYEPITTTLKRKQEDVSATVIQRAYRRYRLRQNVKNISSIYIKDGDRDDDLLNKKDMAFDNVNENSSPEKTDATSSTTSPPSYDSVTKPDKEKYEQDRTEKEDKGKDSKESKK
# [2] = molecular target: T1, Sodium channel protein type 9 subunit alpha; assay: Inhibition of recombinant human Nav1.7 expressed in HEK293 cells at -70 mV holding potential by patch clamp electrophysiology method; format: cell-based
# Target sequence in this assay (Q15858 whole entry): as above
# [3] = Metabolic stability in mouse liver microsomes assessed as parent compound remaining at 0.5 uM after 10 mins; format: ADME, Microsome; conditions: read-out: Stability
# [4] = Fraction unbound in mouse plasma; format: ADME, cell-free
# [5] = Permeability of the compound at pH 7.4 by PAMPA; format: ADME; conditions: read-out: permeability
# [6] = Permeability from apical to basolateral side in human Caco2 cells; format: ADME, cell-based; conditions: Caco-2, read-out: permeability
# [7] = Permeability from basolateral to apical side in human Caco2 cells; format: ADME, cell-based; conditions: Caco-2, read-out: permeability
# [8] = Efflux ratio of permeability in human Caco2 cells; format: ADME, cell-based; conditions: Caco-2
# Cytochrome P450 2C8 [9] = molecular target: T2, Cytochrome P450 2C8 (Homo sapiens, UniProt P10632); assay: Inhibition of CYP2C8 in human liver microsomes; format: ADME
# T2 sequence (P10632 whole entry): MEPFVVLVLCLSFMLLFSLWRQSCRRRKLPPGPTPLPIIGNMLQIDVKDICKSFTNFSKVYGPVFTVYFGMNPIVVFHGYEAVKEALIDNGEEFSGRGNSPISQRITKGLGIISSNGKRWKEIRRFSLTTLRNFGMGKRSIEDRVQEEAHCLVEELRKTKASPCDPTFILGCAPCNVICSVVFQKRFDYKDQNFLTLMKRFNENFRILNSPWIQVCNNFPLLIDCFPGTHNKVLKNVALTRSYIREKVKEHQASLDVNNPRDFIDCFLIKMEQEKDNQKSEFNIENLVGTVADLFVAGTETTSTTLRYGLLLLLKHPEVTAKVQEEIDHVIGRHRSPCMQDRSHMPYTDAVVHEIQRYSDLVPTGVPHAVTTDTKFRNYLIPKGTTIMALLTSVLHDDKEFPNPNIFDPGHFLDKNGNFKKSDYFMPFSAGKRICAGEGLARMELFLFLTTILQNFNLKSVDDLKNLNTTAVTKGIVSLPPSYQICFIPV
# Cytochrome P450 2C9 = Cytochrome P450 2C9 (Homo sapiens, UniProt P11712); assay: Inhibition of CYP2C9 in human liver microsomes; format: ADME
# Cytochrome P450 2C19 [10] = molecular target: T3, Cytochrome P450 2C19 (Homo sapiens, UniProt P33261); assay: Inhibition of CYP2C19 in human liver microsomes; format: ADME
# T3 sequence (P33261 whole entry): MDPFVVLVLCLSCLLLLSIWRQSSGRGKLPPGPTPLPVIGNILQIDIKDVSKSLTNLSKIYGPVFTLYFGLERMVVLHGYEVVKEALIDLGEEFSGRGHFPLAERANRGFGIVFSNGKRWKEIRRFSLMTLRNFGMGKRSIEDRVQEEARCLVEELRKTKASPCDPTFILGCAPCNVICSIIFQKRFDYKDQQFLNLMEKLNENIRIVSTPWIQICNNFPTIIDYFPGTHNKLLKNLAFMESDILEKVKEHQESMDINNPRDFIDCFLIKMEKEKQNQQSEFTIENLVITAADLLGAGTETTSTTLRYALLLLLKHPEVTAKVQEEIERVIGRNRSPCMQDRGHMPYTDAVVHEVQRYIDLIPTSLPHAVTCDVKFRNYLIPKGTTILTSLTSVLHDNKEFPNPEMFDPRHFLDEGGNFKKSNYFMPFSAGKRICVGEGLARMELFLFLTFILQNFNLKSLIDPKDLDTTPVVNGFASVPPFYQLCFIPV
# Cytochrome P450 3A4 [11] = molecular target: T4, Cytochrome P450 3A4 (Homo sapiens, UniProt P08684); assay: Inhibition of CYP3A4 in human liver microsomes; format: ADME
# T4 sequence (P08684 whole entry): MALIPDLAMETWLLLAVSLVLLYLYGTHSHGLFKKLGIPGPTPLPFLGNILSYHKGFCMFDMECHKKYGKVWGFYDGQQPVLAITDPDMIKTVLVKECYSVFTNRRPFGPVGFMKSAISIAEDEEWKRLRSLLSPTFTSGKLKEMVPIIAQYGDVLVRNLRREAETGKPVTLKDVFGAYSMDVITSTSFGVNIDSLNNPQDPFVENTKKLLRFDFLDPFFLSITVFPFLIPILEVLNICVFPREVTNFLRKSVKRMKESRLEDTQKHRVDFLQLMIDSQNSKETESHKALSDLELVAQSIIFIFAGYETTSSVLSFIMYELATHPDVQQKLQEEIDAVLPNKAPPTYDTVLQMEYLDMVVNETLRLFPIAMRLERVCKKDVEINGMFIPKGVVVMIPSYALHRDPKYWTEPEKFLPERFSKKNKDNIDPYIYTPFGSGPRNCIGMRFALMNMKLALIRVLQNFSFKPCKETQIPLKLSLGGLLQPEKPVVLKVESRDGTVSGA
# Cytochrome P450 2C8 [12] = molecular target: T2, Cytochrome P450 2C8; assay: Time-dependant inhibition of CYP2C8 in human liver microsomes; format: ADME
# Cytochrome P450 2C19 [13] = molecular target: T3, Cytochrome P450 2C19; assay: Time-dependant inhibition of CYP2C19 in human liver microsomes; format: ADME
# Cytochrome P450 2D6 = Cytochrome P450 2D6 (Homo sapiens, UniProt P10635); assay: Time-dependant inhibition of CYP2D6 in human liver microsomes; format: ADME
# Cytochrome P450 3A4 [14] = molecular target: T4, Cytochrome P450 3A4; assay: Time-dependant inhibition of CYP3A4 in human liver microsomes; format: ADME
# [15] = molecular target: T5, Nuclear receptor subfamily 1 group I member 2 (Homo sapiens, UniProt O75469); assay: Inhibition of PXR (unknown origin); format: ADME
# T5 sequence (O75469 whole entry): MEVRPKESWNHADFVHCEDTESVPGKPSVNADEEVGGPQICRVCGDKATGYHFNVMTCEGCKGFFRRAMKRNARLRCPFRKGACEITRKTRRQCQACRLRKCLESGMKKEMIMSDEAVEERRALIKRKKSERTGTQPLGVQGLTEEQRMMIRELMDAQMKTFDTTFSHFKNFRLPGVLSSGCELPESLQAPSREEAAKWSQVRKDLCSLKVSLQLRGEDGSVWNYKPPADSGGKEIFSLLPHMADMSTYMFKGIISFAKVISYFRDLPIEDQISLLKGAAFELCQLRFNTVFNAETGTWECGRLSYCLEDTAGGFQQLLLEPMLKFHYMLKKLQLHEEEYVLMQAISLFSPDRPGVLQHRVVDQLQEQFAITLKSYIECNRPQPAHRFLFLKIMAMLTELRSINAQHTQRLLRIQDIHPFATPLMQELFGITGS
# [16] = molecular target: T6, Sodium channel protein type 9 subunit alpha (Mus musculus, UniProt Q62205); assay: Inhibition of recombinant mouse Nav1.7 expressed in HEK293 cells at -70 mV holding potential by patch clamp electrophysiology method; format: cell-based
# T6 sequence (Q62205 whole entry): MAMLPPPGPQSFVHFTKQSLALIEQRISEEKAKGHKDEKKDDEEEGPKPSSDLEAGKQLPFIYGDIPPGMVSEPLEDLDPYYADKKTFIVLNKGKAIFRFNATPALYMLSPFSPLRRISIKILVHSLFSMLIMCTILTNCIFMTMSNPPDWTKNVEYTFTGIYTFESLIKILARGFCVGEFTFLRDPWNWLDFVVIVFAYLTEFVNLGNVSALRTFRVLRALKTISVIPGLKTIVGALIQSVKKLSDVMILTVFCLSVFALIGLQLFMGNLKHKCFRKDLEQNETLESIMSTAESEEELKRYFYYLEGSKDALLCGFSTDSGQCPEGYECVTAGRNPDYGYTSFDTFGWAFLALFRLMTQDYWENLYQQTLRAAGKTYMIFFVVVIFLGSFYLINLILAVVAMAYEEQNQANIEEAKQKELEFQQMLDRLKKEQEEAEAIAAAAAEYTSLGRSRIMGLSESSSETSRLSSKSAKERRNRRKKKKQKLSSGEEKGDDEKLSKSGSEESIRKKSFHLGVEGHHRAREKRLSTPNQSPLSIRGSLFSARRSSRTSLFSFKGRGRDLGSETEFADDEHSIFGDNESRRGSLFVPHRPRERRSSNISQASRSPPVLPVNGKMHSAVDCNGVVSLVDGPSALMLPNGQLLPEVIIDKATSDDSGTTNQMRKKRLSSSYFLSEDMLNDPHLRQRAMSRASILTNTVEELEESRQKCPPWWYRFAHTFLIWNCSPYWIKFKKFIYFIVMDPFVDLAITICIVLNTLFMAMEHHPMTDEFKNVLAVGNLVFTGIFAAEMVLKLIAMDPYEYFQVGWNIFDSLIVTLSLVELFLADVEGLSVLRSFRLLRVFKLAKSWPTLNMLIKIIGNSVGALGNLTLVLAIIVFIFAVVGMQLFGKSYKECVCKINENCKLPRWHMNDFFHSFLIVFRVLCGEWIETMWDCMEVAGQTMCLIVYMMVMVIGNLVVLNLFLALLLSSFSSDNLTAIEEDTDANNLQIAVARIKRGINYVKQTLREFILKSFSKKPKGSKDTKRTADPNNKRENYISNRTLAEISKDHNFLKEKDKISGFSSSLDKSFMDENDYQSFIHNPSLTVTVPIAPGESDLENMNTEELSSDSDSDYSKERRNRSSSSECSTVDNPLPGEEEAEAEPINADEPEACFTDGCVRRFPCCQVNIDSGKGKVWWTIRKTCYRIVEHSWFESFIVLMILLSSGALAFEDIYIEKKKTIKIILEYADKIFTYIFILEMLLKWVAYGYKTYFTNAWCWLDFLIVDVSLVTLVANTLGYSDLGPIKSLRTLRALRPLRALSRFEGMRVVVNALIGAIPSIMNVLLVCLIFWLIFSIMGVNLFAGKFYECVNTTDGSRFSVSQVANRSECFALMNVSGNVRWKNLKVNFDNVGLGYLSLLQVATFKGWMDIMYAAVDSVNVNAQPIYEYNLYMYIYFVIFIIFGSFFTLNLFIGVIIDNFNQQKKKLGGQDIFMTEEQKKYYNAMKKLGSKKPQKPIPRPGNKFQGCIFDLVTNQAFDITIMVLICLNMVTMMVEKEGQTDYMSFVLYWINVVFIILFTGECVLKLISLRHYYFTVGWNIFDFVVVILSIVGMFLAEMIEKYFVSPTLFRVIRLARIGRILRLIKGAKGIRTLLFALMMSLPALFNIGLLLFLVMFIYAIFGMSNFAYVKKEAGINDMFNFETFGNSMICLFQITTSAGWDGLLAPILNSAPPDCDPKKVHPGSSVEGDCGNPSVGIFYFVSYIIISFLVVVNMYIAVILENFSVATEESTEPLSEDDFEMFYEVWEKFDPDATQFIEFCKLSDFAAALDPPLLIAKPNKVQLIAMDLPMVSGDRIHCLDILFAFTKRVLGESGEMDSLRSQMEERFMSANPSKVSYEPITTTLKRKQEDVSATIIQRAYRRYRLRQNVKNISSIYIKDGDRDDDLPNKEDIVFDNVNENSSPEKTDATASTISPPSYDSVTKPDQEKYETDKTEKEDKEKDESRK
# [17] = molecular target: T6, Sodium channel protein type 9 subunit alpha; assay: Inhibition of Nav1.7 in mouse DRG neurons at -70 mV holding potential by patch clamp electrophysiology method
# [18] = Fraction unbound in mouse DRG neurons; format: ADME, cell-based, DRG neuron
# [19] = molecular target: T1, Sodium channel protein type 9 subunit alpha; assay: Inhibition of recombinant human Nav1.7 expressed in HEK293 cells assessed as association time constant at -70 mV holding potential by patch clamp electrophysiology method; format: cell-based
# Target sequence in this assay (Q15858 whole entry, looked up): as the sequence (Q15858 whole entry) above
# [20] = Fraction unbound in mouse trigeminal ganglia neuron tissue; format: ADME, tissue-based, Trigeminal ganglion
# Mus musculus [21] = assay: Analgesic activity in CD1 mouse model of CFA-induced thermal hyperalgesia assessed as reduction in thermal response latency at 30 mg/kg, ip administered 72 hrs post CFA challenge and measured at 60 mins post dose by Hargreave's test; format: functional, organism-based
# Mus musculus [22] = assay: Analgesic activity in CD1 mouse model of CFA-induced thermal hyperalgesia assessed as reduction in thermal response latency at 30 mg/kg, ip administered 72 hrs post CFA challenge and measured at 180 mins post dose by Hargreave's test; format: functional, organism-based
# [23] = Plasma concentration in CD1 mouse model of CFA-induced thermal hyperalgesia at 3 to 30 mg/kg, ip; format: ADME, organism-based; conditions: in vivo
# [24] = Unbound plasma concentration in CD1 mouse model of CFA-induced thermal hyperalgesia at 3 to 30 mg/kg, ip; format: ADME, organism-based; conditions: in vivo
# [25] = Ratio of unbound plasma concentration in CD1 mouse model of CFA-induced thermal hyperalgesia at 3 to 30 mg/kg, ip to IC50 for recombinant mouse Nav1.7 expressed in HEK293 cells at -70 mV holding potential by patch clamp electrophysiology method; format: ADME, organism-based; conditions: in vivo
# Mus musculus [26] = assay: Reduction in mechanoreceptor-mediated afferent transmission in mouse assessed as effect on sural nerve mechanosensitivity at 30 mg/kg, ip measured at 5 to 120 mins post dose at 1.6 mN threshold pressure; format: functional, organism-based
# Mus musculus [27] = assay: Reduction in mechanoreceptor-mediated afferent transmission in mouse assessed as effect on sural nerve mechanosensitivity by measuring decrease in mechanically elicited afferent firing at 30 mg/kg, ip measured at 90 to 120 mins post dose at 98 to 980 mN threshold pressure; format: functional, organism-based
Compound,IC50 [1] [µM],IC50 [2] [µM],"remaining at 10 min, 0.5 µM [3] [%]",fraction unbound [4],Papp [5] [nm/s],Papp A→B [6] [nm/s],Papp B→A [7] [nm/s],efflux ratio [8],IC50 (Cytochrome P450 2C8 [9]) [µM],IC50 (Cytochrome P450 2C9) [µM],IC50 (Cytochrome P450 2C19 [10]) [µM],IC50 (Cytochrome P450 3A4 [11]) [µM],TDI (Cytochrome P450 2C8 [12]),TDI (Cytochrome P450 2C19 [13]),TDI (Cytochrome P450 2D6),TDI (Cytochrome P450 3A4 [14]),IC50 [15] [µM],IC50 [16] [µM],IC50 [17] [µM],fraction unbound [18],other results
CC(C)COc1ccc(-c2cn(C)c3cc(C(=O)NS(C)(=O)=O)c(F)cc23)cn1,0.089,0.025,99,0.014,164,61,186,3.1,1,27,4,15,Not Active,Not Active,Not Active,Not Active,> 50,0.115,0.014,0.085,TIME [19]: 0.00336 h; fraction unbound [20]: 0.069; Activity (Mus musculus [21]): inactive; Activity (Mus musculus [22]): inactive; concentration [23]: 38 µM; Cp(f) [24]: 0.532 µM; Ratio [25]: 4 to 5; Activity (Mus musculus [26]): inactive; Activity (Mus musculus [27]): Active
CC(C)COc1ncc(-c2cn(C)c3cc(C(=O)NS(C)(=O)=O)ccc23)cc1Cl,0.108,0.008,100,0.002,216,< 15,168,> 5.5,1,9.9,28,> 40,Not Active,Not Active,Not Active,Not Active,> 50,0.035,0.011,0.035,TIME [19]: 0.00267 h; fraction unbound [20]: 0.035; Activity (Mus musculus [21]): Active; Activity (Mus musculus [22]): inactive; concentration [23]: 63 µM; Cp(f) [24]: 0.126 µM; Ratio [25]: 4 to 5; Activity (Mus musculus [26]): inactive; Activity (Mus musculus [27]): Active
